Measured values published in ChEMBL document CHEMBL1909046, “DrugMatrix in vitro pharmacology data”.

Assays:
[1] = DRUGMATRIX: Calcium Channel Type L, Benzothiazepine radioligand binding (ligand: [3H] Diltiazem); format: cell membranes, Rattus norvegicus, Wistar, Brain, Membrane; conditions: Not Active = under 50% inhibition at 10 µM
[2] = DRUGMATRIX: GABAA, Flunitrazepam, Central radioligand binding (ligand: [3H] Flunitrazepam); format: cell membranes, Rattus norvegicus, Wistar, Brain, Membrane; conditions: Not Active = under 50% inhibition at 10 µM
[3] = DRUGMATRIX: Phorbol Ester radioligand binding (ligand: [3H] PDBu); format: cell membranes, Mus musculus, ICR, Brain, Membrane; conditions: Not Active = under 50% inhibition at 10 µM
Progesterone receptor = molecular target: T1, Progesterone receptor (Bos taurus, UniProt Q690N0); assay: DRUGMATRIX: Progesterone radioligand binding (ligand: [3H] R-5020); format: tissue-based, Uterus; conditions: Not Active = under 50% inhibition at 10 µM
T1 sequence (Q690N0 whole entry): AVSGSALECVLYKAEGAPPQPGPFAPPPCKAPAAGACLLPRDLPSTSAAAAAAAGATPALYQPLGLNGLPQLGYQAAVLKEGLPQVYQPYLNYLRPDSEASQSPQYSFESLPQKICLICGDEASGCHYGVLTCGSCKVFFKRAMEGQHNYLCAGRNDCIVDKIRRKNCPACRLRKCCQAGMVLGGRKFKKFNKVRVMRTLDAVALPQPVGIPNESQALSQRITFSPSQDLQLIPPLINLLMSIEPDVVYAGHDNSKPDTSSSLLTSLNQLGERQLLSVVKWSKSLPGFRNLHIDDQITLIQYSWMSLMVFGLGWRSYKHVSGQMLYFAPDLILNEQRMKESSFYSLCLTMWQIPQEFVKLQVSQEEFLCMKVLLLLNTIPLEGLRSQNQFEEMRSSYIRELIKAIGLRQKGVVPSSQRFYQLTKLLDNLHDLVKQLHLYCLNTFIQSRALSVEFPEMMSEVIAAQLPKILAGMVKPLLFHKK

[4] = molecular target: T2, Angiotensin-converting enzyme (Oryctolagus cuniculus, UniProt P12822); assay: biochemical; format: tissue-based, Lung;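 further: enzymatic inhibition of angiotensin-converting enzyme measured with FAPGG as the substrate; in other assays of this panel Not Active means under 50% inhibition at 10 µM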
T2 sequence (P12822 whole entry): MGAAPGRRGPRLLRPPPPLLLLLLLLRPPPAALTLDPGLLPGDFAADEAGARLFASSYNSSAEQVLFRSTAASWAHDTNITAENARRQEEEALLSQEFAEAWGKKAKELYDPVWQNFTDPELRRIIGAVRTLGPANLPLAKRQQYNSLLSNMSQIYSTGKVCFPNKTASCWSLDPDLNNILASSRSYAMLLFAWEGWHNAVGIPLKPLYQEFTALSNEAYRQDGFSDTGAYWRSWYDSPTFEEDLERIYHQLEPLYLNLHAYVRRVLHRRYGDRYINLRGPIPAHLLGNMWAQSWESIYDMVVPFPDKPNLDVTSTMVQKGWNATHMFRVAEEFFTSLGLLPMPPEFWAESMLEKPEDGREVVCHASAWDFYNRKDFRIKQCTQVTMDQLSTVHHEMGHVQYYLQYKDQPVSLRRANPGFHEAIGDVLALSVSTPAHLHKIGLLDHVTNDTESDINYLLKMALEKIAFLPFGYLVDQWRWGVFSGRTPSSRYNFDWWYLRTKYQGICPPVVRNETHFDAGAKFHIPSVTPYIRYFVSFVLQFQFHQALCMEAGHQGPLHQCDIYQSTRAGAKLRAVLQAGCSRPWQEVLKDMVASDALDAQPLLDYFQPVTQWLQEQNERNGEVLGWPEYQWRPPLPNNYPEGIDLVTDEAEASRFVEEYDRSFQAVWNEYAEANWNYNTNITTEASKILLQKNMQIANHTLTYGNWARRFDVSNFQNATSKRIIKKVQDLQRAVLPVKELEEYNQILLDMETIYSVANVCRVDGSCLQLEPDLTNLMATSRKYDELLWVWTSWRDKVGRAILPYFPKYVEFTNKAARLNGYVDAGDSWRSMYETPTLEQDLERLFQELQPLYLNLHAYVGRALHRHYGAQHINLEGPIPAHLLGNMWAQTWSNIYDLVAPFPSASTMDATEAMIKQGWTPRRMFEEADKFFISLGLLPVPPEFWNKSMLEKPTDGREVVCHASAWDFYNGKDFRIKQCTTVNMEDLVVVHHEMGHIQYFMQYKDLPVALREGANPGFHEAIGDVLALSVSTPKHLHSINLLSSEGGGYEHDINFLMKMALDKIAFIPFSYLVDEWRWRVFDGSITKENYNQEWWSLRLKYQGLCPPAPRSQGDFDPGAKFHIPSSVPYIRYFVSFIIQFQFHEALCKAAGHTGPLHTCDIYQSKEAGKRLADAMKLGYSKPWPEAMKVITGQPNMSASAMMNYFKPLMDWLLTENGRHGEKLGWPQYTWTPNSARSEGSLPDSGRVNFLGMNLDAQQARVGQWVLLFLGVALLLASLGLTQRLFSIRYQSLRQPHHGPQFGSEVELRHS

[5] = molecular target: C-C chemokine receptor type 2 (Homo sapiens, UniProt P41597); format: cell membranes, CHO-K1, Membrane; conditions: cho-k1; further: in other assays of this panel Not Active means under 50% inhibition at 10 µM
Sequence of C-C chemokine receptor type 2 (P41597 whole entry): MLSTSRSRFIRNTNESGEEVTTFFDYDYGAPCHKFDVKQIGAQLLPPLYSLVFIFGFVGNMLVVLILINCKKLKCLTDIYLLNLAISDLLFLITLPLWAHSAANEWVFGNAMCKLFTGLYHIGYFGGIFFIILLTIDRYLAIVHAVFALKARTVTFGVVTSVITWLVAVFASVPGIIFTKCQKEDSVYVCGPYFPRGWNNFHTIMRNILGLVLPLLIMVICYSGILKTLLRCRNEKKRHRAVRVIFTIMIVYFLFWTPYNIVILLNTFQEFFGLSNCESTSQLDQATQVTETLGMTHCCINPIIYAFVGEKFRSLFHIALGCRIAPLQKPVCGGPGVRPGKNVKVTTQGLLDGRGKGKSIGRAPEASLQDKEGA

[6] = DRUGMATRIX: beta-Lactamase enzyme inhibition (substrate: Nitrocefin); design: species or system Bacillus cereus; conditions: Not Active = under 50% inhibition at 10 µM
[7] = DRUGMATRIX: Glutamate, Kainate radioligand binding (ligand: [3H] Kainic acid); format: cell membranes, Rattus norvegicus, Wistar, Brain, Membrane; conditions: Not Active = under 50% inhibition at 10 µM
[8] = DRUGMATRIX: Atrial Natriuretic Factor (ANF) radioligand binding (ligand: [125I] ANF (rat)); format: cell membranes, Cavia porcellus, Dunkin-Hartley, Adrenal gland, Membrane; conditions: Not Active = under 50% inhibition at 10 µM
Thromboxane-A synthase = molecular target: T3, Thromboxane-A synthase (Homo sapiens, UniProt P24557); assay: biochemical; format: tissue-based, Platelet; conditions: platelet;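 further: enzyme inhibition assay with PGH2 supplied as substrate; in other assays of this panel Not Active means under 50% inhibition at 10 µM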
T3 sequence (P24557 whole entry): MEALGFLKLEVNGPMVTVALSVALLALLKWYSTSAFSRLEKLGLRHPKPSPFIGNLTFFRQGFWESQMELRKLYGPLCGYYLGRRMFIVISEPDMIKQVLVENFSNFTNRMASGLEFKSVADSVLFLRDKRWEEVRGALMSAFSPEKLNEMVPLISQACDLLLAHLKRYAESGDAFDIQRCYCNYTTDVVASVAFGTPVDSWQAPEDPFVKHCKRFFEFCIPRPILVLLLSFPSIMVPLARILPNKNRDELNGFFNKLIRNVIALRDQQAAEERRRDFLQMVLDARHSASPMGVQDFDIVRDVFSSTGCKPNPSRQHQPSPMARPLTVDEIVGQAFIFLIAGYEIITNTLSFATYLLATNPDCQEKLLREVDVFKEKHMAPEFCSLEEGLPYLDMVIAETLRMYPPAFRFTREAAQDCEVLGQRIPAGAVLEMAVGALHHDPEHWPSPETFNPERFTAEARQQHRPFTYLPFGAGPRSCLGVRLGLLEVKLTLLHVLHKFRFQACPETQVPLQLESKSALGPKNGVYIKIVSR

CC[C@H]1OC(=O)[C@H](C)[C@@H](O[C@H]2C[C@@](C)(OC)[C@@H](O)[C@H](C)O2)[C@H](C)[C@@H](O[C@@H]2O[C@H](C)C[C@H](N(C)C)[C@H]2O)[C@](C)(O)C[C@@H](C)/C(=N\OCOCCOC)[C@H](C)[C@@H](O)[C@]1(C)O [ROXITHROMYCIN]
Not Active: IC50 [1] | Ki [1] | IC50 [2] | Ki [2] | IC50 [3] | Ki [3] | IC50 (Progesterone receptor) | IC50 [4] | IC50 [5] | IC50 [6] | Ki [6] | IC50 [7] | Ki [7] | IC50 [8] | Ki [8] | IC50 (Thromboxane-A synthase)

NC(=O)c1ccccc1O [SALICYLAMIDE]
Not Active: IC50 [1] | Ki [1] | IC50 [2] | Ki [2] | IC50 [3] | Ki [3] | IC50 (Progesterone receptor) | IC50 [4] | IC50 [5] | IC50 [6] | Ki [6] | IC50 [7] | Ki [7] | IC50 [8] | Ki [8] | IC50 (Thromboxane-A synthase)

Cc1ncc([N+](=O)[O-])n1CC(C)O (centres undefined) [SECNIDAZOLE]
Not Active: IC50 [1] | Ki [1] | IC50 [2] | Ki [2] | IC50 [3] | Ki [3] | IC50 (Progesterone receptor) | IC50 [4] | IC50 [5] | IC50 [6] | Ki [6] | IC50 [7] | Ki [7] | IC50 [8] | Ki [8] | IC50 (Thromboxane-A synthase)

CN[C@@H]1[C@@H](O)[C@@H](O[C@@H]2[C@@H](O)[C@H](O[C@H]3OC(CN)=CC[C@H]3N)[C@@H](N)C[C@H]2N)OC[C@]1(C)O [SISOMICIN]
Not Active: IC50 [1] | Ki [1] | IC50 [2] | Ki [2] | IC50 [3] | Ki [3] | IC50 (Progesterone receptor) | IC50 [4] | IC50 [5] | IC50 [6] | Ki [6] | IC50 [7] | Ki [7] | IC50 [8] | Ki [8] | IC50 (Thromboxane-A synthase)
